This note sets out measurements from ChEMBL document CHEMBL5725844, “Indazolyl thiadiazolamines and related compounds for inhibition of Rho-associated protein kinase and the treatment of disease” (2018).

Assay [1] addresses Rho-associated protein kinase 1 (Homo sapiens, UniProt Q13464). Nature of the assay: (§1) Protein constructs were purified from a baculovirus expression system. The peptide substrate was fluorescent LANCE® Ultra ULight-CREBtide: […] (PerkinElmer, # TRF0107-D). Kinase reactions were carried out in a 10 μL volume in 384-well plates: 50 nM ULight-CREBtide substrate, 2 nM constitutively active ROCK1 or ROCK2 kinase, and test compound in DMSO (or DMSO only for controls) were diluted into assay buffer containing 50 mM Tris-HCl (pH=7.5), 10 mM MgCl2, 1 mM EGTA, 0.01% Tween-20, and 2 mM DTT such that the final concentration of DMSO was 0.5%. After a 90 minute incubation at room temperature on a shaker table, the kinase reaction was stopped by addition of 10 mM EDTA, and phosphorylation of the substrate was detected by adding 1 nM LANCE® Ultra Europium-anti-phospho-CREB (ser133) antibody (PerkinElmer, # TRF0200-D) and incubating for 60 minutes on a shaker at room temperature. The flurorescence resonance energy transfer (FRET) signals were read and analyzed on an Envision¿ 2103 Multilabel Reader (Perkin Elmer). A general note: Time-resolved FRET reads energy transfer from a long-lived donor to a nearby acceptor.

Assay [2] addresses Rho-associated protein kinase 2 (Homo sapiens, UniProt O75116). The assay is described as §1.

Chain of Rho-associated protein kinase 1 (Q13464 whole entry): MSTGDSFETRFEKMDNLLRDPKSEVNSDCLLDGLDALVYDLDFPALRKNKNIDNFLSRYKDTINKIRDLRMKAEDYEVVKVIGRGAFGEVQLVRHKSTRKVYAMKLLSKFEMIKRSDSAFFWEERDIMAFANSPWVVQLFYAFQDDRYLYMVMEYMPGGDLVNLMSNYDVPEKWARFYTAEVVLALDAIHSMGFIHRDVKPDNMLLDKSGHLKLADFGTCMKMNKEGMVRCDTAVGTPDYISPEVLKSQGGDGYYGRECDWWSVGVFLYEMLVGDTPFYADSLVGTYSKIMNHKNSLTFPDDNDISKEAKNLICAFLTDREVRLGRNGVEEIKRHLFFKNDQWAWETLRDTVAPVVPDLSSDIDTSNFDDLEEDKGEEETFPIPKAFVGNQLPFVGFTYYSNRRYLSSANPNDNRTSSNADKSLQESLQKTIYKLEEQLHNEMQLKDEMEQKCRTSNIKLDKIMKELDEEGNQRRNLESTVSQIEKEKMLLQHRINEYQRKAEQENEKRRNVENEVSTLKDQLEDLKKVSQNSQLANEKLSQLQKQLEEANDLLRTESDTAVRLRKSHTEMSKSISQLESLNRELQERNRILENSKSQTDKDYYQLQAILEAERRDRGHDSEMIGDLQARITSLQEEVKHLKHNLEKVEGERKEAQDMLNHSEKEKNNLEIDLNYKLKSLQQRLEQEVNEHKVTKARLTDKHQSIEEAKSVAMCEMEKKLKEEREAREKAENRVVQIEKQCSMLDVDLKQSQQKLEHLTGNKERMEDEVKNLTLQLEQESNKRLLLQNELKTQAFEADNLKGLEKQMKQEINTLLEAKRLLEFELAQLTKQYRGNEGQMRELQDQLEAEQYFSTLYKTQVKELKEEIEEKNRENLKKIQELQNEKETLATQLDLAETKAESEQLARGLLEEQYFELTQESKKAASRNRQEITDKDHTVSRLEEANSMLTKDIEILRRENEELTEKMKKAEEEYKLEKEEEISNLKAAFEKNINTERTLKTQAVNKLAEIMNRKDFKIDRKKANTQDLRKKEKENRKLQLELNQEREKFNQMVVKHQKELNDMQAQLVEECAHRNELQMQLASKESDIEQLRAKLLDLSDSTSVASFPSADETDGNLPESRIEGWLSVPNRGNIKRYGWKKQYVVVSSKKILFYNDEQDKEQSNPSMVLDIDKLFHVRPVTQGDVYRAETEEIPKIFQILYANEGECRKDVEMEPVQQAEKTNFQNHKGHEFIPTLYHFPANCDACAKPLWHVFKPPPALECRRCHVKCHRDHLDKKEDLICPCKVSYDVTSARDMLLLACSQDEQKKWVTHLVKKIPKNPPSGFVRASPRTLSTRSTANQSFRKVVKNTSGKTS
Chain of Rho-associated protein kinase 2 (O75116 whole entry): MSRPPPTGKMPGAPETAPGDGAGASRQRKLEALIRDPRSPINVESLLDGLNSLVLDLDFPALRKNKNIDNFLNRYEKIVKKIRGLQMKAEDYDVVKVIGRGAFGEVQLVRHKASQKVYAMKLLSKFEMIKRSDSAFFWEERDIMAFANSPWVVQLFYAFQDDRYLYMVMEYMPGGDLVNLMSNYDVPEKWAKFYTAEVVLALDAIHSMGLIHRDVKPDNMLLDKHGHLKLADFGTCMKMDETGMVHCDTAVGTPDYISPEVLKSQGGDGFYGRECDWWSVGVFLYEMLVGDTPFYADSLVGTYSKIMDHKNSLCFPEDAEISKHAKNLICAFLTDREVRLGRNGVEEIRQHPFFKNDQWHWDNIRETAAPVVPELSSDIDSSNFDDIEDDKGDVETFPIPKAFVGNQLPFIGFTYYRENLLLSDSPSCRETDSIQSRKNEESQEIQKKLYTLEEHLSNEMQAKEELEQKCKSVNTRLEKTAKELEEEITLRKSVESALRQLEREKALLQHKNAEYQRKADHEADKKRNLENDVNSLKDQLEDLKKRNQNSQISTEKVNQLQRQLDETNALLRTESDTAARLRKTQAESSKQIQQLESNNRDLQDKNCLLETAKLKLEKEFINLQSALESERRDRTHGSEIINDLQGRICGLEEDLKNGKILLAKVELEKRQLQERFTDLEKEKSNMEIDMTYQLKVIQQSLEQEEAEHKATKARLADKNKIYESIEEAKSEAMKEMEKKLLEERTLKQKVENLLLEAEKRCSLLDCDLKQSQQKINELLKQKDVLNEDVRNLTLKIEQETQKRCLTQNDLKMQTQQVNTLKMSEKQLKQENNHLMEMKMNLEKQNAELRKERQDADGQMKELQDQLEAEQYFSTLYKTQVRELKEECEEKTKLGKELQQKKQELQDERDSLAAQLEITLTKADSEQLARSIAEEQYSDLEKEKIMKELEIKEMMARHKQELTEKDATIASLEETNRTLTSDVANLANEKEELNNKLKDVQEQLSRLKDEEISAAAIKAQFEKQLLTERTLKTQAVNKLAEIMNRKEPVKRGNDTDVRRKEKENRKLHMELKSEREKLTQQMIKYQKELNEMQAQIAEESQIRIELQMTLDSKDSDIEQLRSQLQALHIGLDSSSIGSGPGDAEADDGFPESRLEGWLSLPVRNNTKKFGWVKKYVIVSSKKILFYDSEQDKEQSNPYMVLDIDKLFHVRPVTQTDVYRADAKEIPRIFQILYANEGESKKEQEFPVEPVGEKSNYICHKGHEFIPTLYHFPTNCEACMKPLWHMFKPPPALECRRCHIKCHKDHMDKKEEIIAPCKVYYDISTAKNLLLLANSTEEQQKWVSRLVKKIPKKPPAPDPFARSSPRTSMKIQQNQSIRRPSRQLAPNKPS

Usually IC50 stands for the concentration that gives 50% inhibition. Low values mean greater potency in that assay, high ones weaker potency in that assay. For the molecule `Cc1cn2cccc(-c3nnc(Nc4ccc5[nH]ncc5c4Cl)s3)c2n1`, the IC50 in assay [1] and in assay [2] was under 1000 nM each time.

Turning to `CC(=O)Nc1cc(C(=O)N2CCOCC2)cc(-c2nnc(Nc3ccc4[nH]ncc4c3Cl)s2)c1`, the 50% inhibitory concentration (IC50) in assay [1] and in assay [2] was under 1000 nM throughout.

For `COCCOC(=O)Nc1cc(-c2nnc(Nc3ccc4[nH]ncc4c3Cl)s2)ccn1`, the concentration for half-maximal inhibition (IC50) in assay [1] was over 30000 nM; in assay [2], under 1000 nM.

Consider `O=S(=O)(CCO)Nc1cccc(-c2nnc(Nc3ccc4[nH]ncc4c3)s2)c1`, for which the IC50 is over 30000 nM in assay [1] and under 1000 nM in assay [2].

In the case of `CC(=O)Nc1cccc(-c2nnc(Nc3ccc4[nH]ncc4c3Br)s2)c1`, the IC50 in assay [1] and in assay [2] was under 1000 nM throughout.

Regarding `CC(C)(O)C(=O)Nc1cccc(-c2nnc(Nc3ccc4[nH]ncc4c3Cl)s2)c1`, the IC50 in assay [1] and in assay [2] was under 1000 nM each time.

For the molecule `Clc1c(Nc2nnc(-c3cccc(-c4nccn4CCN4CCCC4)c3)s2)ccc2[nH]ncc12`, the IC50 was over 30000 nM in assay [1] and under 1000 nM in assay [2].

Turning to `CC(=O)Nc1ccc(Cl)c(-c2nnc(Nc3ccc4[nH]ncc4c3Cl)s2)c1`, the results for the IC50 in assay [1] and in assay [2] were over 30000 nM and under 1000 nM, respectively.

Turning to `CCOC(=O)N(c1nnc(-c2cccc(NC(=O)Cc3ccc(F)cc3)c2)s1)c1ccc2[nH]ncc2c1Cl`, the IC50 in assay [1] is over 30000 nM.

Regarding `CC(=O)Nc1cc(C(N)=O)cc(-c2nnc(Nc3ccc4[nH]ncc4c3Cl)s2)c1`, the IC50 in assay [1] and in assay [2] was under 1000 nM each time.

In the case of `CN(C)CCn1cnc2c(-c3nnc(Nc4ccc5[nH]ncc5c4Cl)s3)cccc21`, the IC50 in assay [1] and in assay [2] was under 1000 nM in each case.

Turning to `CNC(=O)c1cc(NC(C)=O)cc(-c2nnc(Nc3ccc4[nH]ncc4c3Cl)s2)c1`, the half-inhibitory concentration (IC50) in assay [1] and in assay [2] was under 1000 nM each time.

In turn, `Clc1c(Nc2nnc(-c3cccc4c3ncn4CCN3CCCC3)s2)ccc2[nH]ncc12` had a 50% inhibitory concentration (IC50) in assay [1] of over 30000 nM.

With `O=C(Nc1cccc(-c2nnc(Nc3ccc4[nH]ncc4c3Cl)s2)c1)C(F)(F)F`, the concentration for half-maximal inhibition (IC50) is over 30000 nM in assay [1] and under 1000 nM in assay [2].

For the molecule `N#Cc1ccc(-c2cn3cccc(-c4nnc(Nc5ccc6[nH]ncc6c5Cl)s4)c3n2)cc1`, the values for the half-maximal inhibitory concentration (IC50) in assay [1] and in assay [2] were over 30000 nM and under 1000 nM, respectively.

In turn, `O=C(Nc1cccc(-c2nnc(Nc3ccc4[nH]ncc4c3Cl)s2)c1)C1CCNCC1` returned an IC50 in assay [2] of under 1000 nM.

Consider `NCc1ccc(C(=O)Nc2cccc(-c3nnc(Nc4ccc5[nH]ncc5c4)s3)c2)cn1`, for which the IC50 in assay [1] and in assay [2] was under 1000 nM throughout.

In the case of `CCCCOC(=O)N(c1nnc(-c2cccc(NC(=O)Cc3ccc(F)cc3)c2)s1)c1ccc2[nH]ncc2c1Cl`, the figures for the half-inhibitory concentration (IC50) in assay [1] and in assay [2] were over 30000 nM and under 1000 nM, respectively.

In the case of `CC(=O)Nc1cccc(-c2nnc(Nc3ccc4[nH]ncc4c3)s2)c1`, the IC50 in assay [1] and in assay [2] was under 1000 nM each time.

With `CC(=O)Nc1cc(C)cc(-c2nnc(Nc3ccc4[nH]ncc4c3)s2)c1`, the results for the IC50 in assay [1] and in assay [2] were over 30000 nM and under 1000 nM, respectively.

`O=C(Nc1cccc(-c2nnc(Nc3ccc4[nH]ncc4c3Cl)s2)c1)C1CCCCC1`: the 50% inhibitory concentration (IC50) in assay [1] and in assay [2] was under 1000 nM each time.

On to `Clc1c(Nc2nnc(-c3cccc(-c4nccn4CCN4CCOCC4)c3)s2)ccc2[nH]ncc12`, for which the IC50 in assay [1] and in assay [2] was under 1000 nM in each case.

In assay [2], `CC1(C(=O)Nc2cccc(-c3nnc(Nc4ccc5[nH]ncc5c4Cl)s3)c2)CCCCC1` yielded a concentration for half-maximal inhibition (IC50) of under 1000 nM.

For the molecule `CC(=O)Nc1cc(C(N)=O)cc(-c2nnc(Nc3ccc4[nH]ncc4c3)s2)c1`, the IC50 in assay [1] and in assay [2] was under 1000 nM throughout.

On to `CC(=O)Nc1cc(C(=O)N2CCNCC2)cc(-c2nnc(Nc3ccc4[nH]ncc4c3Cl)s2)c1`, for which the concentration for half-maximal inhibition (IC50) in assay [1] and in assay [2] was under 1000 nM throughout.

As for `O=C(CC(F)(F)F)Nc1cccc(-c2nnc(Nc3ccc4[nH]ncc4c3Cl)s2)c1`, the 50% inhibitory concentration (IC50) in assay [1] and in assay [2] was under 1000 nM throughout.

Turning to `CN1CC(C(=O)Nc2cccc(-c3nnc(Nc4ccc5[nH]ncc5c4Cl)s3)c2)C1`, the IC50 in assay [2] was under 1000 nM.

Regarding `CC(=O)Nc1cc(C(=O)NCCN(C)C)cc(-c2nnc(Nc3ccc4[nH]ncc4c3Cl)s2)c1`, the IC50 in assay [1] and in assay [2] was under 1000 nM throughout.

`CN1CCC(C(=O)Nc2cccc(-c3nnc(Nc4ccc5[nH]ncc5c4Cl)s3)c2)CC1`: the IC50 in assay [1] and in assay [2] was under 1000 nM each time.
